Test results reported in patent US20060069132A1, “Azolecarboxamide herbicides” (priority 2004, published 2006).

How the values were obtained:
giant foxtail [1] = assay: Test A pre-/postemergence herbicide test; assay type: in vivo, Setaria faberi; settings: for Plant response rating, Foxtail, Giant: Postemergence; for Foxtail, Giant plant response rating: Preemergence
Summary of the method: (§1)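 Greenhouse injury scoring (0–100, complete control = 100) at approximately ten days follows simultaneous pre- and postemergence application. Soil received a directed spray after seeding; seedlings of 2–10 cm at the one- to two-leaf stage were sprayed to runoff.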

blackgrass = assay: Test B postemergence herbicide test; assay type: in vivo, Alopecurus myosuroides; settings: scale 0 (no effect) to 100 (complete control)
Summary of the method: (§2)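 Scale 0–100: zero equals no visible effect, 100 complete control, judged by eye relative to controls. Timing: 13 to 15 days in greenhouse post-treatment. Growth stage at spraying: two leaves (paddy) or one to four leaves, 2–18 cm (postemergence).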

redroot pigweed = assay: Test A pre-/postemergence herbicide test; assay type: in vivo, Amaranthus retroflexus; settings: for Plant response rating, Pigweed: Postemergence; for Pigweed plant response rating: Preemergence
Summary of the method: as §1

morningglory [2] = assay: Test B pre-/postemergence herbicide test; assay type: in vivo, Ipomoea coccinea
Summary of the method: (§3)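 Formulation: non-phytotoxic solvent mix with surfactant. Timing: preemergence on seed and postemergence on 2–18 cm plants, applied concurrently. Readout after 13–15 d greenhouse: visual 0–100 control rating against controls.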

lambsquarters = assay: Test B pre-/postemergence herbicide test; assay type: in vivo, Chenopodium album
Summary of the method: (§4)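 Greenhouse pot assay with simultaneous preemergence (treated seed) and postemergence (2–18 cm seedlings) applications of surfactant-containing, non-phytotoxic solvent formulations. Response scored visually 13–15 days later on a 0–100 scale, 100 meaning complete control.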

corn = assay: Test B pre-/postemergence herbicide test; assay type: in vivo, Zea mays
Summary of the method: as §4

wild oat = assay: Test B postemergence herbicide test; assay type: in vivo, Avena fatua; settings: scale 0 (no effect) to 100 (complete control)
Summary of the method: (§5)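 Postemergence plants were sprayed with formulated test chemicals at 2 to 18 cm height (1- to 4-leaf stage); paddy species were grown to the 2-leaf stage. After 13 to 15 days in a greenhouse, injury was rated visually against untreated controls on a 0–100 scale (0 = no effect, 100 = complete control).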

Surinam grass = assay: Test B pre-/postemergence herbicide test; assay type: in vivo, Urochloa decumbens
Summary of the method: as §4

ducksalad = assay: Test B flooded paddy test; assay type: in vivo, Heteranthera limosa; settings: 1000 g ai/ha, visual rating, scale 0 to 100 (0 no effect, 100 complete control), 13 to 15 days
Summary of the method: as §2

large crabgrass [3] = assay: Test B pre-/postemergence herbicide test; assay type: in vivo, Digitaria sanguinalis
Summary of the method: as §4

velvetleaf [4] = assay: Test A pre-/postemergence herbicide test; assay type: in vivo, Abutilon theophrasti; settings: for Velvetleaf plant response rating: Preemergence
Summary of the method: as §1

large crabgrass [5] = assay: Test A pre-/postemergence herbicide test; assay type: in vivo, Digitaria sanguinalis; settings: for Plant response rating, Crabgrass, Large: Postemergence; for Crabgrass, Large plant response rating: Preemergence
Summary of the method: as §1

morningglory [6] = assay: Test A pre-/postemergence herbicide test; assay type: in vivo, Ipomoea spp.; settings: for Plant response rating, Morningglory: Postemergence; for Morningglory plant response rating: Preemergence
Summary of the method: as §1

barnyardgrass [7] = assay: Test B pre-/postemergence herbicide test; assay type: in vivo, Echinochloa crus-galli
Summary of the method: as §3

barnyardgrass [8] = assay: Test B flooded paddy test; assay type: in vivo, Echinochloa crus-galli; settings: 1000 g ai/ha, visual rating, scale 0 to 100 (0 no effect, 100 complete control), 13 to 15 days
Summary of the method: as §2

[9] = tested on: small flower umbrella sedge; assay: Test B flooded paddy test; assay type: in vivo, Cyperus difformis; settings: 1000 g ai/ha, visual rating, scale 0 to 100 (0 no effect, 100 complete control), 13 to 15 days
Summary of the method: as §2

wheat = assay: Test B postemergence herbicide test; assay type: in vivo, Triticum aestivum; set-up: key to Wheat plant response rating: 0 = no effect, 100 = complete control; settings: scale 0 (no effect) to 100 (complete control)
Summary of the method: as §5

cocklebur = assay: Test B pre-/postemergence herbicide test; assay type: in vivo, Xanthium strumarium
Summary of the method: as §3

velvetleaf [10] = assay: Test B pre-/postemergence herbicide test; assay type: in vivo, Abutilon theophrasti
Summary of the method: as §4

pigweed = assay: Test B pre-/postemergence herbicide test; assay type: in vivo, Amaranthus retroflexus
Summary of the method: as §4

barnyardgrass [11] = assay: Test A pre-/postemergence herbicide test; assay type: in vivo, Echinochloa crus-galli; settings: for Plant response rating, Barnyardgrass: Postemergence; for Barnyardgrass plant response rating: Preemergence
Summary of the method: as §1

rice [12] = assay: Test B flooded paddy test; assay type: in vivo, Oryza sativa; settings: 1000 g ai/ha, visual rating, scale 0 to 100 (0 no effect, 100 complete control), 13 to 15 days
Summary of the method: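 Greenhouse test; postemergence application to plants at 1–4 leaves (2–18 cm); paddy species at 2 leaves; evaluated visually vs controls at 13–15 days; scale 0–100 (100 = complete control).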

giant foxtail [13] = assay: Test B pre-/postemergence herbicide test; assay type: in vivo, Setaria faberi
Summary of the method: as §4

rice [14] = assay: Test B pre-/postemergence herbicide test; assay type: in vivo, Oryza sativa
Summary of the method: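 Species tested were Echinochloa crus-galli, Ipomoea coccinea, Xanthium strumarium and Oryza sativa, treated both before emergence and at the 1- to 4-leaf stage; rice and barnyardgrass were also tested under flooding at 2 leaves. Greenhouse incubation lasted 13–15 days before visual 0–100 scoring.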

[15] = 500 g ai/ha, 0 to 100 scale, 0 no effect, 100 complete control
[16] = 2000 g ai/ha, 0 to 100 scale, 0 no effect, 100 complete control
[17] = 500 g ai/ha, visual rating, 0 to 100 scale (0 no effect, 100 complete control)
[18] = Postemergence, 500 g ai/ha, visual rating after 13 to 15 days
[19] = postemergence, 125 g ai/ha, visual rating
[20] = Postemergence, 500 g ai/ha, visual rating after 13 to 15 days, scale 0 (no effect) to 100 (complete control)
[21] = Preemergence, 500 g ai/ha, scale 0 to 100
[22] = postemergence, 125 g ai/ha, visual rating, scale 0 (no effect) to 100 (complete control)
[23] = preemergence, 125 g ai/ha, 0 to 100 scale, 0 is no effect, 100 is complete control

## CCN(CC)C(=O)c1cc(NC(=O)c2cc(C(C)(C)C)nn2CC)ccc1F [Compound 59]
Giant foxtail [1]; [15]
  Plant response rating, Foxtail, Giant: 15
Giant foxtail [1]; [16]
  Plant response rating, Foxtail, Giant: 20
  Foxtail, Giant plant response rating: 65
Giant foxtail [1]; [17]
  Foxtail, Giant plant response rating: 5
blackgrass; [18]
  Plant response rating, Blackgrass: 0
blackgrass; [19]
  Blackgrass plant response rating: 0
Redroot pigweed; [15]
  Plant response rating, Pigweed: 40
Redroot pigweed; [16]
  Plant response rating, Pigweed: 75
  Pigweed plant response rating: 100
Redroot pigweed; [17]
  Pigweed plant response rating: 90
Morningglory [2]; [20]
  Plant response rating, Morningglory: 20
Morningglory [2]; [21]
  Morningglory plant response rating: 10
Morningglory [2]; [22]
  Morningglory plant response rating: 20
Morningglory [2]; [23]
  Plant response rating, Morningglory: 0
lambsquarters; [20]
  Plant response rating, Lambsquarters: 90
lambsquarters; [21]
  Lambsquarters plant response rating: 100
lambsquarters; [22]
  Lambsquarters plant response rating: 80
lambsquarters; [23]
  Plant response rating, Lambsquarters: 90
corn; [20]
  Plant response rating, Corn: 20
corn; [21]
  Corn plant response rating: 0
corn; [22]
  Corn plant response rating: 10
corn; [23]
  Plant response rating, Corn: 0
Wild oat; [18]
  Plant response rating, Oat, Wild: 20
Wild oat; [19]
  Oat, Wild plant response rating: 10
Surinam grass; [20]
  Plant response rating, Surinam Grass: 20
Surinam grass; [21]
  Surinam Grass plant response rating: 10
Surinam grass; [22]
  Surinam Grass plant response rating: 10
Surinam grass; [23]
  Plant response rating, Surinam Grass: 0
ducksalad
  Ducksalad plant response rating: 0
Large crabgrass [3]; [20]
  Plant response rating, Crabgrass, Large: 20
Large crabgrass [3]; [21]
  Crabgrass, Large plant response rating: 20
Large crabgrass [3]; [22]
  Crabgrass, Large plant response rating: 10
Large crabgrass [3]; [23]
  Plant response rating, Crabgrass, Large: 10
Velvetleaf [4]; Postemergence, 2000 g ai/ha, 0 to 100 scale, 0 no effect, 100 complete control
  Plant response rating, Velvetleaf: 20
Velvetleaf [4]; [17]
  Velvetleaf plant response rating: 15
Velvetleaf [4]; [16]
  Velvetleaf plant response rating: 55
Large crabgrass [5]; [15]
  Plant response rating, Crabgrass, Large: 15
Large crabgrass [5]; [16]
  Plant response rating, Crabgrass, Large: 20
  Crabgrass, Large plant response rating: 45
Large crabgrass [5]; [17]
  Crabgrass, Large plant response rating: 25
Morningglory [6]; [15]
  Plant response rating, Morningglory: 10
Morningglory [6]; [16]
  Plant response rating, Morningglory: 10
  Morningglory plant response rating: 40
Morningglory [6]; [17]
  Morningglory plant response rating: 10
Barnyardgrass [7]; [20]
  Plant response rating, Barnyardgrass: 20
Barnyardgrass [7]; [21]
  Barnyardgrass plant response rating: 70
Barnyardgrass [7]; [22]
  Barnyardgrass plant response rating: 0
Barnyardgrass [7]; [23]
  Plant response rating, Barnyardgrass: 10
Barnyardgrass [8]
  Barnyardgrass plant response rating: 0
[9]
  Sedge, Umbrella plant response rating: 0
wheat; [18]
  Plant response rating, Wheat: 10
wheat; [19]
  Wheat plant response rating: 0
cocklebur; [20]
  Plant response rating, Cocklebur: 40
cocklebur; [21]
  Cocklebur plant response rating: 0
cocklebur; [22]
  Cocklebur plant response rating: 10
cocklebur; [23]
  Plant response rating, Cocklebur: 0
Velvetleaf [10]; [20]
  Plant response rating, Velvetleaf: 20
Velvetleaf [10]; [21]
  Velvetleaf plant response rating: 40
Velvetleaf [10]; [22]
  Velvetleaf plant response rating: 20
Velvetleaf [10]; [23]
  Plant response rating, Velvetleaf: 10
pigweed; [20]
  Plant response rating, Pigweed: 80
pigweed; [21]
  Pigweed plant response rating: 100
pigweed; [22]
  Pigweed plant response rating: 70
pigweed; [23]
  Plant response rating, Pigweed: 100
Barnyardgrass [11]; [15]
  Plant response rating, Barnyardgrass: 20
Barnyardgrass [11]; [16]
  Plant response rating, Barnyardgrass: 30
  Barnyardgrass plant response rating: 60
Barnyardgrass [11]; [17]
  Barnyardgrass plant response rating: 25
Rice [12]
  Rice plant response rating: 0
Giant foxtail [13]; [20]
  Plant response rating, Foxtail, Giant: 20
Giant foxtail [13]; [21]
  Foxtail, Giant plant response rating: 40
Giant foxtail [13]; [22]
  Foxtail, Giant plant response rating: 0
Giant foxtail [13]; [23]
  Plant response rating, Foxtail, Giant: 0
Rice [14]; [21]
  Rice plant response rating: 0
Rice [14]; [23]
  Plant response rating, Rice: 0
